# Counter-ions that a name gives are not always drawn. Like-named read-outs stand apart in the source and are kept apart here.
# How the values were obtained:
# Mycobacterium smegmatis = assay: Broth microdilution MIC/MBC, Mycobacterium smegmatis; format: cell-based; details: Mycolicibacterium smegmatis, ATCC14468
# [1] = test system: vancomycin resistant enterococci (VRE) E. faecium; assay: Broth microdilution MIC/MBC, VRE E. faecium; format: cell-based
# B. cereus = assay: Broth microdilution MIC/MBC, B. cereus; format: cell-based
# Excerpt: The broth microdilution technique was used, followed by subculturing on agar plates that were rhodanine—free.
# [2] = test system: vancomycin resistant enterococci (VRE) E. faecalis; assay: Broth microdilution MIC/MBC, VRE E. faecalis; format: cell-based
# [3] = test system: Vancomycin Resistant Staphylococcus aureus (VRSA); assay: Broth microdilution MIC/MBC, VRSA; format: cell-based; details: VRSA
# MRSA USA300 = assay: MIC against MRSA USA300 with and without 4% human serum albumin; format: cell-based, Staphylococcus aureus; details: Staphylococcus aureus, read-out: MIC against MRSA USA300
# Protocol: The minimum inhibitory concentration (MIC) and the minimum bactericidal concentration (MBC) of rhodanine compounds 1 to 7 were determined against various Gram-positive and Gram-negative pathogens (S1 Table) following the guidelines of the Clinical and Laboratory Standards Institute (CLSI)[4]. The broth microdilution technique was used, followed by subculturing on agar plates that were rhodanine—free. […] The MICs reported represent the lowest concentration of each compound necessary to inhibit bacterial growth and the MBCs represent the lowest concentration required to reduce the initial bacterial inoculum by ≥ 99.9%.
# The antimicrobial activity of rhodanine compounds in the presence of 4% human serum albumin (HSA) was tested against MRSA USA300. The MICs of rhodanine compounds and control antibiotics (vancomycin and daptomycin) were tested as described in the methods above using tryptic soy broth spiked with 4% HSA. We also synthesized and tested three more compounds, ethyl ester and amide of rhodanine 2 (Rh 8 and Rh 10, respectively) and ethyl ester of rhodanine 3 (Rh 9) to determine the influence of a carboxyl group modification toward anti-MRSA activity and human serum albumin (HSA) binding.
# Clostridium difficile = assay: MIC against Clostridium difficile, anaerobic broth dilution; format: cell-based; details: Clostridioides difficile
# Protocol: Clinical isolates of C. difficile were cultured on anaerobic blood agar and incubated anaerobically using container gas pack system at 37° C for 48 hours. The colonies were then suspended in pre-reduced phosphate buffered saline (PBS) and adjusted to 0.5 McFarland standard then diluted 1:300 in pre-reduced Supplemented Brain Heart Infusion broth. The bacterial suspension was then transferred to each well of 96-well plates, the drugs were added to the first row of wells in the required concentrations and serially diluted along the plates. The plates were incubated again anaerobically using container gas pack system at 37° C for 48 hours. The (MIC) recorded was the lowest concentration of the drug showing no visible growth of the bacteria.
# [4] = test system: established methicillin-resistant S. epidermidis biofilm (ATCC 35984, NRS 101); assay: Microtiter dish biofilm eradication assay (crystal violet); format: cell-based, Staphylococcus epidermidis; details: high concentrations (up to 8 X MIC), 24 h
# Protocol: We used S. epidermidis ATCC 35984 (NRS 101), a high-slime producer isolated in septicemic patients, with colonized intravascular catheters from Tennessee, USA [10]. This strain is a multi-drug resistant strain, showing resistance to methicillin, erythromycin, kanamycin, gentamicin, clindamycin and trimethoprim. Briefly, an overnight culture of biofilm—producing MRSE was diluted 1:100 in a fresh medium containing 1% glucose in a 96-well tissue-culture treated plate. Bacteria were incubated at 37°C for 24 h to permit the formation of an adherent biofilm. The medium was removed and the biofilm was washed with PBS. Antibacterial drugs (vancomycin and linezolid) and rhodanine 2, at indicated concentration, were added and incubated again at 37°C for 24 h. Plates were washed again and biofilms were stained with 0.1% (wt/vol) crystal violet. Plates were washed with PBS, air-dried and biofilm mass was dissolved using 95% ethanol. The intensity of crystal violet was measured using a micro plate reader (SpectraMax i3x; Molecular Devices, Sunnyvale, CA, USA). Data are presented as the percent biofilm mass reduction in treated groups in relation to untreated wells.
# B. licheniformis = assay: Broth microdilution MIC/MBC, B. licheniformis; format: cell-based; details: Bacillus licheniformis
# Bacillus Strains = assay: Broth microdilution MIC50/MIC90 and MIC range, Bacillus strains panel; format: cell-based, Bacillus spp.; details: 10 Bacillus strains
# Excerpt: The broth microdilution technique was used, followed by subculturing on agar plates that were rhodanine—free. […] The MICs reported represent the lowest concentration of each compound necessary to inhibit bacterial growth and the MBCs represent the lowest concentration required to reduce the initial bacterial inoculum by ≥ 99.9%.
# [5] = test system: vancomycin resistant enterococci (VRE); assay: Broth microdilution MIC50/MIC90, VRE panel; format: cell-based; details: Enterococcus, VRE
smiles,measurement,setting,value
"CN[C@H](CC(C)C)C(=O)N[C@H]1C(=O)N[C@@H](CC(N)=O)C(=O)N[C@H]2C(=O)N[C@H]3C(=O)N[C@H](C(=O)N[C@H](C(=O)O)c4cc(O)cc(O)c4-c4cc3ccc4O)[C@H](O)c3ccc(c(Cl)c3)Oc3cc2cc(c3O[C@@H]2O[C@H](CO)[C@@H](O)[C@H](O)[C@H]2O[C@H]2C[C@](C)(N)[C@H](O)[C@H](C)O2)Oc2ccc(cc2Cl)[C@H]1O [Vancomycin, vancomycin hydrochloride, reference compound]",MBC,Mycobacterium smegmatis,16 µM
same,MIC,Mycobacterium smegmatis,2 µM
same,MIC,[1],> 64 µM
same,MIC,[1]; E. faecium E417 HM-965,> 64/— μM
same,MIC,[1]; E. faecium E1071 NR-28978,> 64/— μM
same,MIC,[1]; E. faecium HM 968 Strain ERV102,> 64/— μM
same,MIC,[1]; E. faecium NR31914 Strain E0120,> 64/— μM
same,MBC,B. cereus; B. cereus BAG1O-2 NR-28582,< 0.5/< 0.5 μM
same,MIC,B. cereus; B. cereus BAG1O-2 NR-28582,< 0.5/< 0.5 μM
same,MBC,B. cereus; B. cereus BAG1X1-1 NR-28575,< 0.5/< 0.5 μM
same,MIC,B. cereus; B. cereus BAG1X1-1 NR-28575,< 0.5/< 0.5 μM
same,MBC,B. cereus; B. cereus G9241 NR-9564,< 0.5/< 0.5 μM
same,MIC,B. cereus; B. cereus G9241 NR-9564,< 0.5/< 0.5 μM
same,MBC,B. cereus; B. cereus VD014 NR-22141,< 0.5/< 0.5 μM
same,MIC,B. cereus; B. cereus VD014 NR-22141,< 0.5/< 0.5 μM
same,MBC,B. cereus; B. cereus VD115 NR-22148,< 0.5/< 0.5 μM
same,MIC,B. cereus; B. cereus VD115 NR-22148,< 0.5/< 0.5 μM
same,MBC,B. cereus; B. cereus VD148 NR-22150,< 0.5/< 0.5 μM
same,MIC,B. cereus; B. cereus VD148 NR-22150,< 0.5/< 0.5 μM
same,MBC,"B. cereus; Bacillus cereus, B. cereus BAG1X2-1 NR-28578, read-out: MBC",< 0.5 µM
same,MIC,"B. cereus; Bacillus cereus, B. cereus BAG1X2-1 NR-28578, read-out: MIC",< 0.5 µM
same,MBC,"B. cereus; Bacillus cereus, NRS201, B. cereus NRS 201 NR-2488, read-out: MBC",< 0.5 µM
same,MIC,"B. cereus; Bacillus cereus, NRS201, B. cereus NRS 201 NR-2488, read-out: MIC",< 0.5 µM
same,MIC,[2],> 64 µM
same,MIC,[2]; E. faecalis ERV103 HM-934,> 64/— μM
same,MIC,[2]; E. faecalis NR31972 Strain SF 28073,> 64/— μM
same,MIC,[2]; E. faecalis S613 HM-334,> 64/— μM
same,MIC,[2]; E. faecalis TX0104 HM-201,> 64/— μM
same,MBC,[3],> 64 µM
same,MIC50,[3],> 64 µM
same,MIC90,[3],> 64 µM
same,MIC,[3]; VRSA 1,> 64 µM
same,MIC,[3]; VRSA 2,> 16 µM
same,MIC,[3]; VRSA 3a,> 16 µM
same,MIC,[3]; VRSA 3b,> 16 µM
same,MIC,[3]; VRSA 4,> 64 µM
same,MIC,[3]; VRSA 5,64 µM
same,MIC,[3]; VRSA 6,> 64 µM
same,MIC,[3]; VRSA 7,> 64 µM
same,MIC,[3]; VRSA 8,> 64 µM
same,MIC,[3]; VRSA 9,> 64 µM
same,MIC,[3]; VRSA 10,> 64 µM
same,MIC,[3]; VRSA 11a,> 64 µM
same,MIC,[3]; VRSA 11b,> 64 µM
same,MIC,[3]; VRSA 12,> 64 µM
same,MIC,[3]; VRSA 13,> 64 µM
same,MIC,MRSA USA300,0.5 µM
same,MIC,Clostridium difficile; C. difficile HM-88,0.5 µM
same,MIC,Clostridium difficile; C. difficile HM-745,0.125 µM
same,MIC,Clostridium difficile; C. difficile HM-746,0.25 µM
same,MIC,Clostridium difficile; C. difficile Isolate-1 NR-13427,1 µM
same,MIC,Clostridium difficile; C. difficile Toxigenic Strain P8 NR-32888,0.5 µM
same,biofilm mass reduction,[4],not significantly decreased
same,MBC,B. licheniformis; NCIB9375,2 µM
same,MIC,B. licheniformis; NCIB9375,< 0.5 µM
same,MBC,B. licheniformis; NRS712,< 0.5 µM
same,MIC,B. licheniformis; NRS712,< 0.5 µM
same,MIC50,Bacillus Strains,< 0.5 µM
same,MIC90,Bacillus Strains,< 0.5 µM
same,MIC50,[5],> 64 µM
same,MIC90,[5],> 64 µM
